Assay results as given in ChEMBL document CHEMBL1154260, “Synthesis and SAR of alkanediamide-linked bisbenzamidines with anti-trypanosomal and anti-pneumocystis activity” (Bioorg Med Chem Lett, 2009).

Legend:
[1] = system: Trypanosoma brucei brucei; assay: Antitrypanosomal activity against pentamidine-sensitive Trypanosoma brucei brucei LAB 110 EATRO; assay type: functional, organism-based
[2] = Selectivity index, ratio of IC50 for human A549 cells to IC50 for Trypanosoma brucei; assay type: toxicity, cell-based; conditions: read-out: Ratio IC50
[3] = system: A549; assay: Cytotoxicity against human A549 cells; assay type: cell-based
[4] = system: Nucleic Acid; assay: Binding affinity to poly(dA-dT)DNA assessed as change in melting temperature; assay type: nucleic-acid assay
[5] = system: Trypanosoma brucei rhodesiense; assay: Antitrypanosomal activity against Multidrug-resistant Trypanosoma brucei rhodesiense KETRI 243; assay type: functional, organism-based
[6] = system: Pneumocystis carinii; assay: Antipneumocystis activity against Pneumocystis carinii; assay type: functional, organism-based
[7] = system: Nucleic Acid; assay: Binding affinity to DNA assessed as change in melting temperature; assay type: nucleic-acid assay
[8] = Selectivity index, ratio of IC50 for human A549 cells to IC50 for Pneumocystis carinii

| SMILES | IC50 [1] | selectivity ratio [2] | IC50 [3] | ΔTm [4] | IC50 [5] | IC50 [6] | ΔTm [7] | Ratio IC50 [8] |
| --- | --- | --- | --- | --- | --- | --- | --- | --- |
| N=C(N)c1ccc(NC(=O)CCCCCCCCC(=O)Nc2ccc(C(=N)N)cc2)cc1 | 0.002 µM | 18900 | 249 µM | 7.5 °C | 0.004 µM | 4.28 µM |  |  |
| NC(=O)c1ccc(NC(=O)CCCCC(=O)Nc2ccc(C(N)=O)cc2)cc1 | 2.8 µM |  |  | 7.5 °C | 1.1 µM | > 100 µM |  |  |
| N=C(N)c1ccc(OCCCCCOc2ccc(C(=N)N)cc2)cc1 [PENTAMIDINE] |  |  |  | 21.6 °C | […] |  |  |  |
| N=C(N)c1ccc(NC(=O)CCCC(=O)Nc2ccc(C(=N)N)cc2)cc1 | 0.009 µM |  | 2280 µM | 7.5 °C | 0.096 µM | 0.003 µM | 11.4 °C |  |
| NC(=O)c1cccc(NC(=O)CCCCC(=O)Nc2cccc(C(N)=O)c2)c1 |  |  | > 261 µM | 7.5 °C | 1.97 µM | > 100 µM |  |  |
| N=C(N)c1ccc(NC(=O)CCCCCCCCCCC(=O)Nc2ccc(C(=N)N)cc2)cc1 | 0.008 µM |  | 18 µM | 7.5 °C | 0.007 µM | 3.07 µM |  |  |
| N#Cc1ccc(NC(=O)CCCC(=O)Nc2ccc(C#N)cc2)cc1 | 6.5 µM |  |  | 7.5 °C | 7.9 µM |  |  |  |
| N=C(N)c1ccc(NC(=O)CCCCCCC(=O)Nc2ccc(C(=N)N)cc2)cc1 | 0.003 µM | 18900 | 176 µM | 13.2 °C | 0.001 µM | 1.95 µM | 13.2 °C |  |
| N=C(N)c1ccc(NC(=O)CCCCCCCC(=O)Nc2ccc(C(=N)N)cc2)cc1 | 0.4 µM |  | 2.87 µM | 7.5 °C | 0.24 µM | 2.44 µM |  |  |
| N=C(N)c1ccc(NC(=O)CCCCC(=O)Nc2ccc(C(=N)N)cc2)cc1 | 0.003 µM | 18900 | 1190 µM | 7.5 °C | 0.002 µM |  | 11.4 °C | 596500 |
| N=C(N)c1ccc(NC(=O)CCCCCC(=O)Nc2ccc(C(=N)N)cc2)cc1 | 0.002 µM | 18900 | > 237 µM | 7.5 °C | 0.002 µM | 2.37 µM |  |  |
| N=C(N)c1ccc(NC(=O)CCCCC(=O)Nc2cccc(C(=N)N)c2)cc1 | 0.012 µM | 18900 | > 227 µM | 7.5 °C | 0.007 µM | 2.27 µM |  |  |
| N=C(N)c1cccc(NC(=O)CCCCC(=O)Nc2cccc(C(=N)N)c2)c1 | 0.041 µM |  |  | 13.8 °C | 0.021 µM | 33.7 µM | 13.8 °C |  |
| N=C(N)c1ccc(NC(=O)CCC(=O)Nc2ccc(C(=N)N)cc2)cc1 | 9 µM |  | > 44.2 µM | 7.5 °C | 2.19 µM | 0.442 µM | 11.4 °C |  |
